Assay results as given in patent US12624066B2, “Inhibitors of coronavirus protease” (SUNSHINE BIOPHARMA INC., priority 2020, dated 2026).
Square brackets hold non-standard residues; d marks the D form. Peptide text beside a SMILES is read from it.

Target: SARS-CoV-2-PLpro enzyme (Severe acute respiratory syndrome coronavirus 2, UniProt P0DTD1)
Assay: SARS-CoV-2-PLpro enzyme inhibition assay
Type: biochemical
Conditions: read-out: Percent inhibition
Experimental: The inhibition assay was carried out as follows. 1 μM SARS-CoV-2-PLpro enzyme was incubated with 25 μM Arg-Leu-Arg-Gly-Gly-AMC substrate and 100 μM of the inhibitor peptide tested, in reaction buffer (100 mM NaCl, 50 mM HEPES [pH=7.5], 0.01 mg/mL bovine serum albumin, and 5 mM DTT) to a final volume of 50 μL. A control reaction with no inhibitory peptide was included and serves as the basis for “no inhibition”. Each reaction was carried in triplicate. The percentage inhibition was calculated by […].

Row | SMILES | inhibition at 100 µM [%]
1 | CC(C)C[C@@H](NC(=O)[C@@H](N)CCCNC(=N)N)C(=O)N[C@@H](CCCCN)C(=O)NCC(=O)NCC(=O)O [Arg - Leu - Lys - Gly - Gly] (H-R[dL]KGG-OH) | 5 to 10
2 | CC(C)C[C@@H](NC(=O)[C@@H](N)CO)C(=O)N[C@@H](CCCCN)C(=O)NCC(=O)NCC(=O)O [Ser - Leu - Lys - Gly - Gly] (H-S[dL]KGG-OH) | 0
3 | CC(C)C[C@@H](NC(=O)[C@@H](N)CCCNC(=N)N)C(=O)N[C@@H](CCCNC(=N)N)C(=O)NCC(=O)NCC(=O)O [Arg - Leu - Arg - Gly - Gly] | 10 to 15
4 | CC(C)C[C@@H](NC(=O)[C@@H](N)CCC(=O)O)C(=O)N[C@@H](CC(N)=O)C(=O)NCC(=O)NCC(=O)O [Glu - Leu - Asn - Gly - Gly] (H-E[dL]NGG-OH) | 0
